Source: US8440710B2, “HSL inhibitors useful in the treatment of diabetes” (Hoffmann-La Roche Inc., priority 2009, dated 2013)

Biological target: T1, human HSL (Homo sapiens, UniProt Q05469)
T1 construct: generate a full length human HSL ORF with a 3′-His6 tag; made in house; host or cells: High 5 insect cells (baculovirus, pFast-BAC)
T1 sequence (Q05469 1-1076): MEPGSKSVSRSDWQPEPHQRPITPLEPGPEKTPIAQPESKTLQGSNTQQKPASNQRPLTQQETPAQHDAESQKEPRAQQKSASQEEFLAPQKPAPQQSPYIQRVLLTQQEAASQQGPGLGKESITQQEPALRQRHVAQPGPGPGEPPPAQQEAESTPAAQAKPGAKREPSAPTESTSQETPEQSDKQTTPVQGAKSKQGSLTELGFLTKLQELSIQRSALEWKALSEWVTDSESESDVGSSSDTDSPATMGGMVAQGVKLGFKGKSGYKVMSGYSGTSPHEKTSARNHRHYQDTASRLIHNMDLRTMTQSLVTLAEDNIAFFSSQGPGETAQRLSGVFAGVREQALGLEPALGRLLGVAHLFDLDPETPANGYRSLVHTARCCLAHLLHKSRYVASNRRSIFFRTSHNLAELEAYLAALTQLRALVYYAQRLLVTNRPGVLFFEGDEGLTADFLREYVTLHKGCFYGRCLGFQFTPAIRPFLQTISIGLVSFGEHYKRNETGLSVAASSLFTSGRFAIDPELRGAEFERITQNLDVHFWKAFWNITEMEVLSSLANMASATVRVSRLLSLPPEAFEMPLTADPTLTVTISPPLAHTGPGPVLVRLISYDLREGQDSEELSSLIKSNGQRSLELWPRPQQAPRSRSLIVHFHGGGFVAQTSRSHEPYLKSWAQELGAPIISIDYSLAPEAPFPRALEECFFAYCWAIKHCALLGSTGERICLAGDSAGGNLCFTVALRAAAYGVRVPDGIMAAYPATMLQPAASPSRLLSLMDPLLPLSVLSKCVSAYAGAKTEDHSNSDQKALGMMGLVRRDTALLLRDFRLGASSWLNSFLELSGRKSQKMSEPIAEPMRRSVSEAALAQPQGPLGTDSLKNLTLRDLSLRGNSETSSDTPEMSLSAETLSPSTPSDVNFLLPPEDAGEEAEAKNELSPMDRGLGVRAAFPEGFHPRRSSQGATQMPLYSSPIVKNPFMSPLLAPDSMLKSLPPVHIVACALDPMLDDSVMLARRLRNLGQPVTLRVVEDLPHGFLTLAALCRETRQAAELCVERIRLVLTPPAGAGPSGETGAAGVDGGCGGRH
Experiment: Human Hormone-Sensitive Lipase (HSL) enzyme inhibition assay (colorimetric, DMPT substrate)
Assay type: biochemical
Details: human full length HSL-His6, 2,3-dimercapto-1-propanol tributyrate substrate, 37° C. 20 minutes, absorbance at 405 nm; read-out: HSL hum IC50
Procedure, shortened: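 Full-length human HSL with C-terminal His6, expressed in baculovirus-infected High 5 cells and Ni-NTA purified, was added (15 ug/ml stock) to 1.5 mM DMPT in 100 mM MOPS pH 7.2, 0.2 mg/ml fatty acid-free BSA containing compound. After 20 min at 37 °C, DTNB with SDS/Triton X-100 was added; A405 read after 15 min at RT.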

Row | Compound | IC50 [nM]
1 | O=C1N(c2ccc(CC(F)(F)F)cc2)CC[C@]12CC[C@@](O)(COCC(F)F)CC2 [Example 303, (5α,8α)-8-(2,2-Difluoro-ethoxymethyl)-8-hydroxy-2-[4-(2,2,2-trifluoro-ethyl)-phenyl]-2-aza-spiro[4.5]decan-1-one] | 10
2 | CS(=O)(=O)C[C@]1(O)CC[C@]2(CCN(c3ccc(OCC(F)(F)F)cc3)C2=O)CC1 [Example 304, (5α,8α)-8-Hydroxy-8-methanesulfonylmethyl-2-[4-(2,2,2-trifluoro-ethoxy)-phenyl]-2-aza-spiro[4.5]decan-1-one] | 330
3 | CCCS(=O)(=O)C[C@]1(O)CC[C@]2(CCN(c3ccc(OCC(F)(F)F)cc3)C2=O)CC1 [Example 305, (5α,8α)-8-Hydroxy-8-(propane-1-sulfonylmethyl)-2-[4-(2,2,2-trifluoro-ethoxy)-phenyl]-2-aza-spiro[4.5]decan-1-one] | 30
4 | CC(C)SC[C@]1(O)CC[C@]2(CCN(c3ccc(OCC(F)(F)F)cc3)C2=O)CC1 [Example 306, (5α,8α)-8-Hydroxy-8-isopropylsulfanylmethyl-2-[4-(2,2,2-trifluoro-ethoxy)-phenyl]-2-aza-spiro[4.5]decan-1-one] | 10
5 | CC(C)OC[C@]1(O)CC[C@@]2(CCN(c3ccc(O[C@@H](C)C(F)(F)F)cc3)C2=O)CC1 [Example 307, (5α,8β)-8-Hydroxy-8-isopropoxymethyl-2-[4-((S)-2,2,2-trifluoro-1-methyl-ethoxy)-phenyl]-2-aza-spiro[4.5]decan-1-one] | 200
6 | CC(C)OC[C@]1(O)CC[C@]2(CCN(c3ccc(O[C@@H](C)C(F)(F)F)cc3)C2=O)CC1 [Example 308, (5α,8α)-8-Hydroxy-8-isopropoxymethyl-2-[4-((S)-2,2,2-trifluoro-1-methyl-ethoxy)-phenyl]-2-aza-spiro[4.5]decan-1-one] | 10
7 | CC(C)OC[C@]1(O)CC[C@]2(CCN(c3ccc(O[C@@H](C)C(F)(F)F)nc3)C2=O)CC1 [Example 309, (5α,8α)-8-Hydroxy-8-isopropoxymethyl-2-[6-((S)-2,2,2-trifluoro-1-methyl-ethoxy)-pyridin-3-yl]-2-aza-spiro[4.5]decan-1-one] | 10
8 | CC(C)OC[C@]1(O)CC[C@]2(CCN(c3ccc(O[C@H](C)C(F)(F)F)cc3)C2=O)CC1 [Example 310, (5α,8α)-8-Hydroxy-8-isopropoxymethyl-2-[4-((R)-2,2,2-trifluoro-1-methyl-ethoxy)-phenyl]-2-aza-spiro[4.5]decan-1-one] | 10
9 | CCOC[C@]1(O)CC[C@]2(CCN(c3ccc(O[C@H](C)C(F)(F)F)nc3)C2=O)CC1 [Example 311, (5α,8α)-8-Ethoxymethyl-8-hydroxy-2-[6-((R)-2,2,2-trifluoro-1-methyl-ethoxy)-pyridin-3-yl]-2-aza-spiro[4.5]decan-1-one] | 30
10 | CCCOC[C@]1(O)CC[C@]2(CCN(c3ccc(O[C@H](C)C(F)(F)F)nc3)C2=O)CC1 [Example 312, (5α,8α)-8-Hydroxy-8-propoxymethyl-2-[6-((R)-2,2,2-trifluoro-1-methyl-ethoxy)-pyridin-3-yl]-2-aza-spiro[4.5]decan-1-one] | 10
11 | C[C@@H](Oc1ccc(N2CC[C@]3(CC[C@](O)(COCC(F)F)CC3)C2=O)cn1)C(F)(F)F [Example 313, (5α,8β)-8-(2,2-Difluoro-ethoxymethyl)-8-hydroxy-2-[6-((R)-2,2,2-trifluoro-1-methyl-ethoxy)-pyridin-3-yl]-2-aza-spiro[4.5]decan-1-one] | 280
12 | C[C@@H](Oc1ccc(N2CC[C@]3(CC[C@@](O)(COCC(F)F)CC3)C2=O)cn1)C(F)(F)F [Example 314, (5α,8α)-8-(2,2-Difluoro-ethoxymethyl)-8-hydroxy-2-[6-((R)-2,2,2-trifluoro-1-methyl-ethoxy)-pyridin-3-yl]-2-aza-spiro[4.5]decan-1-one] | 20
13 | CC(C)OC[C@]1(O)CC[C@@]2(CCN(c3ccc(O[C@H](C)C(F)(F)F)nc3)C2=O)CC1 [Example 315, (5α,8β)-8-Hydroxy-8-isopropoxymethyl-2-[6-((R)-2,2,2-trifluoro-1-methyl-ethoxy)-pyridin-3-yl]-2-aza-spiro[4.5]decan-1-one] | 180
14 | CC(C)OC[C@]1(O)CC[C@]2(CCN(c3ccc(O[C@H](C)C(F)(F)F)nc3)C2=O)CC1 [Example 316, (5α,8α)-8-Hydroxy-8-isopropoxymethyl-2-[6-((R)-2,2,2-trifluoro-1-methyl-ethoxy)-pyridin-3-yl]-2-aza-spiro[4.5]decan-1-one] | 20
15 | CC(C)[S+]([O-])C[C@]1(O)CC[C@]2(CCN(c3ccc(OCC(F)(F)F)cc3)C2=O)CC1 (stereo partly drawn) [Example 317, (5α,8α)-8-Hydroxy-8-(propane-2-sulfinylmethyl)-2-[4-(2,2,2-trifluoro-ethoxy)-phenyl]-2-aza-spiro[4.5]decan-1-one] | 200
16 | CC(C)S(=O)(=O)C[C@]1(O)CC[C@]2(CCN(c3ccc(OCC(F)(F)F)cc3)C2=O)CC1 [Example 318, (5α,8α)-8-Hydroxy-8-(propane-2-sulfonylmethyl)-2-[4-(2,2,2-trifluoro-ethoxy)-phenyl]-2-aza-spiro[4.5]decan-1-one] | 30
17 | CC(C)(C)SC[C@]1(O)CC[C@]2(CCN(c3ccc(OCC(F)(F)F)cc3)C2=O)CC1 [Example 319, (5α,8α)-8-tert-Butylsulfanylmethyl-8-hydroxy-2-[4-(2,2,2-trifluoro-ethoxy)-phenyl]-2-aza-spiro[4.5]decan-1-one] | 10
18 | CC(C)SC[C@]1(O)CC[C@]2(CCN(c3ccc(O[C@@H](C)C(F)(F)F)nc3)C2=O)CC1 [Example 320, (5α,8α)-8-Hydroxy-8-isopropylsulfanylmethyl-2-[6-((S)-2,2,2-trifluoro-1-methyl-ethoxy)-pyridin-3-yl]-2-aza-spiro[4.5]decan-1-one] | 10
19 | CC(C)SC[C@]1(O)CC[C@]2(CCN(c3ccc(O[C@H](C)C(F)(F)F)nc3)C2=O)CC1 [Example 321, (5α,8α)-8-Hydroxy-8-isopropylsulfanylmethyl-2-[6-((R)-2,2,2-trifluoro-1-methyl-ethoxy)-pyridin-3-yl]-2-aza-spiro[4.5]decan-1-one] | 10
20 | CC(C)(C)S(=O)(=O)C[C@]1(O)CC[C@]2(CCN(c3ccc(OCC(F)(F)F)cc3)C2=O)CC1 [Example 322, (5α,8α)-8-Hydroxy-8-(2-methyl-propane-2-sulfonylmethyl)-2-[4-(2,2,2-trifluoro-ethoxy)-phenyl]-2-aza-spiro[4.5]decan-1-one] | 20
21 | CC(C)S(=O)(=O)C[C@]1(O)CC[C@]2(CCN(c3ccc(O[C@@H](C)C(F)(F)F)nc3)C2=O)CC1 [Example 323, (5α,8α)-8-Hydroxy-8-(propane-2-sulfonylmethyl)-2-[6-((S)-2,2,2-trifluoro-1-methyl-ethoxy)-pyridin-3-yl]-2-aza-spiro[4.5]decan-1-one] | 10
22 | CC(C)S(=O)(=O)C[C@]1(O)CC[C@]2(CCN(c3ccc(O[C@H](C)C(F)(F)F)nc3)C2=O)CC1 [Example 324, (5α,8α)-8-Hydroxy-8-(propane-2-sulfonylmethyl)-2-[6-((R)-2,2,2-trifluoro-1-methyl-ethoxy)-pyridin-3-yl]-2-aza-spiro[4.5]decan-1-one] | 20
23 | C[C@H](Oc1ccc(N2CC[C@]3(CC[C@@](O)(CS(=O)(=O)C(C)(C)C)CC3)C2=O)cn1)C(F)(F)F [Example 325, (5α,8α)-8-Hydroxy-8-(2-methyl-propane-2-sulfonylmethyl)-2-[6-((S)-2,2,2-trifluoro-1-methyl-ethoxy)pyridin-3-yl]-2-aza-spiro[4.5]decan-1-one] | 10
24 | C[C@@H](Oc1ccc(N2CC[C@]3(CC[C@@](O)(CS(=O)(=O)C(C)(C)C)CC3)C2=O)cn1)C(F)(F)F [Example 326, (5α,8α)-8-Hydroxy-8-(2-methyl-propane-2-sulfonylmethyl)-2-[6-((R)-2,2,2-trifluoro-1-methyl-ethoxy)-pyridin-3-yl]-2-aza-spiro[4.5]decan-1-one] | 10
25 | C[C@@H](Oc1ccc(N2CC[C@]3(CC[C@@](O)(COCC(F)(F)F)CC3)C2=O)cn1)C(F)(F)F [Example 327, (5α,8α)-8-Hydroxy-8-(2,2,2-trifluoro-ethoxymethyl)-2-[6-((R)-2,2,2-trifluoro-1-methyl-ethoxy)-pyridin-3-yl]-2-aza-spiro[4.5]decan-1-one] | 30
